Entries after “also recorded” stand apart in the source; their conditions may differ.
How the values were obtained:
[1] = test system: NF-κB signaling in HEK293 cells; test: NF-κB luciferase reporter gene system; format: cell-based
Protocol: FIGS. 10A-10C show the inhibition verification effect chart of GA-02 in Example 5, where FIG. 10A: GA-02 inhibited LPS-induced ICAM-1 expression activity. The inflammatory pathway of HMEC-1 cell was activated by 1 μg/mL LPS, to determine the effect of Celastrol and GA-02 on the expression of ICAM-1 induced by LPS. FIG. 10B: The effect of GA-02 on NF-κB signaling. The NF-κB luciferase reporter plasmid was used to transfect HEK293 cells, and the effects of Celastrol and GA-02 on the NF-κB activity induced by TNF-α were determined; FIG. 10C: qRT-PCR was used to detect mRNA relative expressions of IL-1β, TNF-α, IL-6 and MCP-1.
ICAM-1 is a downstream effector molecule regulated by NF-κB signaling pathway, and NF-κB plays an important role in regulating the expression of ICAM-1 gene. Celastrol can inhibit the activation of the LPS-induced IKK/NF-κB signaling pathway. In order to validate that GA-02 functions through the IKK/NF-κB signaling pathway, we constructed an NF-κB luciferase reporter gene system to validate the inhibitory activity of Celastrol and GA-02 on the luciferase reporter gene. […] In addition, both Celastrol and GA-02 could down-regulate the mRNA transcription levels of inflammatory factors IL-1β, TNF-α, IL-6 and MCP-1 activated by LPS.

[2] = test system: mildly obese mice of weighing about 30 g; test: GA-02 intragastric administration in mildly obese mice; format: in vivo; settings: 40 mg/kg intragastric, two weeks
Protocol: The lean mice of about 25 g, mildly obese mice of weighing about 30 g, and obese mice of about 45 g are given blank vehicle and high-dose GA-02 (40 mg/kg) by intragastric administration, respectively.

mildly obese mice = test: GA-02 in mildly obese mouse model, intraperitoneal; format: in vivo, C57BL/6 mice
Protocol: The animal feeding and experiment method are as follows. […] The food intake and body weights of mice in each group are measured every day.

[3] = test system: high-fat-induced obese mice; test: GA-02 in high-fat-induced obese mouse model, intraperitoneal; format: in vivo, C57BL/6 mice
Protocol: Animals are fed with 60% calorie high-fat diets (purchased from Bio-medicine) for 14 consecutive weeks. […] When the blood glucose is greater than 11 mmol/L and the body weight is greater than 42 g, the administration is started. […] The injection volume is 25 μL per day. In addition, a vehicle (25 μL DMSO) and positive drug (Celastrol) control are established. […] Mice in the blank group and GA-02 treatment group underwent pathological anatomy, to observe the changes in organs before and after administration. Samples are taken to prepare pathological sections.
The models are constructed by feeding high-fat diets to C57BL/6 male mice for 14 weeks. Mice with body weight greater than 42 g and blood glucose higher than 11 mmol/L are obese model mice. Mice are grouped by blood glucose and body weight. Model mice in each group are given three doses of GA-02 (high-, medium-and low-doses, 4, 12, 20 mg/kg, 25 μL/day) by intraperitoneal injection for 14 consecutive days. Mice in the blank control group are given DMSO (25 μL/day) by intraperitoneal injection, and the food intakes and body weights are recorded every day.

lean mice (about 22 g) = settings: mouse, in vivo, ip
Protocol: The animal feeding and experiment method are as follows. Six-week-old SPF-grade C57BL/6 mice (purchased from Hubei Provincial Center for Disease Control and Prevention) are fed in SPF animal house at a room temperature of 22° C., 4 mice per cage. Animals are fed with ordinary mouse feeds (purchased from) for 2 consecutive weeks. Mice are free to take food and the padding is changed every two days, and the body weights and blood glucose are monitored every week. When the body weight reaches 22 g, the administration is started. The drug is dissolved in DMSO solvent and administered by intraperitoneal injection at an injection volume of 25 μL per day. In addition, a vehicle and positive drug control are established. The food intake and body weight changes of mice in each group are measured every day.

[4] = high-dose (20 mg/kg) i.p., second day
[5] = high-dose (20 mg/kg) i.p., third day
[6] = low-, medium- and high-dose (4, 12, 20 mg/kg) i.p.
[7] = low-, medium- and high-dose (4, 12, 20 mg/kg) i.p., 14 days

**Q.** How did the “inhibition of NF-κB reporter fluorescence compared with Celastrol” value ([1]; 10 μM) turn out when `CC1(C(=O)O)CCC2(C)CCC3(C)C(=CC(=O)C4C5(C)C=C(O)C(=O)C(C)(C)C5CCC43C)C2C1` (stereo not drawn) [GA-02, 3,11-dicarbonyl-1,12-diene-2-hydroxy-oleanane-30 carboxylic acid] was run?
**A.** equivalent to that of 1 μM Celastrol

**Q.** And the “inhibition of the fluorescence intensity, concentration dependence” value ([1]; different concentrations)?
**A.** concentration-dependent manner

**Q.** And the “average daily food intake reduced by” value [2]?
**A.** 30%

**Q.** And the “body weight reduced by” value [2]?
**A.** 16%

**Q.** What about the “food intake and body weight vs vehicle control group” value (mildly obese mice; high-dose i.p., mild obesity group, body weight of about 28 g) of the same molecule?
**A.** significantly lower

**Q.** What about the “effect on suppressing appetite and reducing body weight (summary)” value (mildly obese mice; intraperitoneal injection, mildly obese mice) of the same molecule?
**A.** significant effect

**Q.** And the “accumulated fats in the visceral tissues” value ([3]; after administration for two weeks, dissection)?
**A.** completely dissipated

**Q.** And the “average daily food intake decreased compared to the vehicle control group” value (from here on “average daily food intake decreased”) ([3]; first week, high dose 20 mg/kg i.p.)?
**A.** 63.2%

**Q.** What about the “average daily food intake” value ([3]; first week, high dose 20 mg/kg i.p., vehicle 2.31±0.18 g) of the same molecule?
**A.** 0.85 ± 0.23 g

**Q.** And the “average daily food intake decreased” value ([3]; first week, low dose 4 mg/kg i.p.)?
**A.** 20.8%

**Q.** And the “average daily food intake” value ([3]; first week, low dose 4 mg/kg i.p., vehicle 2.31±0.18 g)?
**A.** 1.83 ± 0.28 g

**Q.** And the “average daily food intake decreased” value ([3]; first week, medium dose 12 mg/kg i.p.)?
**A.** 27.3%

**Q.** What about the “average daily food intake” value ([3]; first week, medium dose 12 mg/kg i.p., vehicle 2.31±0.18 g) of the same molecule?
**A.** 1.68 ± 0.35 g

**Q.** What about the “body weight reduced by” value ([3]; high dose 20 mg/kg i.p., 14 days) of the same molecule?
**A.** 26.42±0.73%

**Q.** What about the “body weight two weeks after administration” value (shortened to “body weight two weeks”) ([3]; high dose 20 mg/kg i.p., 14 days, from 42.14±1.37 g) of the same molecule?
**A.** 30.07 ± 1.23 g

**Q.** And the “lipid droplets in the liver (oil red O and H&E staining)” value ([3]; high-dose (20 mg/kg) i.p.)?
**A.** completely disappeared

**Q.** What about the “liver function indexes AST and ALT vs vehicle control group” value ([3]; high-dose (20 mg/kg) i.p.) of the same molecule?
**A.** significantly lower

**Q.** What about the “average daily food intake” value ([3]; high-dose (20 mg/kg) i.p., first day of administration, day 0: 2.0±0.18 g) of the same molecule?
**A.** 0.60 ± 0.02 g

**Q.** And the body weight ([3]; high-dose (20 mg/kg) i.p., first day, from 42.09±0.42 g)?
**A.** 40.98 ± 0.57 g

**Q.** And the “average daily food intake” value [3, 4]?
**A.** 0.47 ± 0.16 g

**Q.** And the body weight [3, 4]?
**A.** 39.94 ± 0.62 g

**Q.** What about the “average daily food intake” value [3, 5] of the same molecule?
**A.** 0.39 ± 0.11 g

**Q.** And the body weight [3, 5]?
**A.** 39.23 ± 0.71 g

**Q.** And the “blood glucose tolerance (GTT) and insulin tolerance (ITT)” value ([3]; high-dose administration group)?
**A.** significantly improved

**Q.** And the “effect on suppressing appetite and reducing body weight (summary)” value ([3]; intraperitoneal injection, obese mice)?
**A.** strong effect

**Q.** What about the “body weight reduced by” value ([3]; low dose 4 mg/kg i.p., 14 days) of the same molecule?
**A.** 9.88±2.37%

**Q.** What about the “body weight two weeks” value ([3]; low dose 4 mg/kg i.p., 14 days, from 42.50±1.71 g) of the same molecule?
**A.** 38.46 ± 0.95 g

**Q.** What about the “fat contents vs obese model mice (NMR body fat quantitative analysis)” value [3, 6] of the same molecule?
**A.** significantly lower

**Q.** And the “lean body masses (NMR body fat quantitative analysis)” value [3, 6]?
**A.** no significant change

**Q.** And the “fasting blood glucose level” value [3, 7]?
**A.** reduce to a normal level; also recorded: return to the normal levels

**Q.** And the “weights of liver and epididymal fat compared to the vehicle control group” value [3, 7]?
**A.** decrease in a dose-dependent manner

**Q.** And the “body weight reduced by” value ([3]; medium dose 12 mg/kg i.p., 14 days)?
**A.** 13.15±2.73%

**Q.** And the “body weight two weeks” value ([3]; medium dose 12 mg/kg i.p., 14 days, from 41.41.±1.17 g)?
**A.** 35.45 ± 1.15 g

**Q.** What about the “average daily food intake decreased” value ([3]; second mention of 'first week', high dose 20 mg/kg i.p.) of the same molecule?
**A.** 68.8%

**Q.** What about the “average daily food intake” value ([3]; second mention of 'first week', high dose 20 mg/kg i.p., vehicle 2.47±0.13 g) of the same molecule?
**A.** 0.70 ± 0.16 g

**Q.** And the “average daily food intake decreased” value ([3]; second mention of 'first week', low dose 4 mg/kg i.p.)?
**A.** 37.2%

**Q.** What about the “average daily food intake” value ([3]; second mention of 'first week', low dose 4 mg/kg i.p., vehicle 2.47±0.13 g) of the same molecule?
**A.** 1.55 ± 0.12 g

**Q.** What about the “average daily food intake decreased” value ([3]; second mention of 'first week', medium dose 12 mg/kg i.p.) of the same molecule?
**A.** 45.3%

**Q.** What about the “average daily food intake” value ([3]; second mention of 'first week', medium dose 12 mg/kg i.p., vehicle 2.47±0.13 g) of the same molecule?
**A.** 1.35 ± 0.18 g

**Q.** What about the body weights (lean mice (about 22 g)) of the same molecule?
**A.** no decrease but an upward trend

**Q.** What about the “effect on the food intake and body weight (summary)” value (lean mice (about 22 g)) of the same molecule?
**A.** no effect

**Q.** What about the “food intakes compared to the vehicle control group” value (lean mice (about 22 g)) of the same molecule?
**A.** no significant change
